Data reported in US20240391960A1, “EXTRACELLULAR CYCLOPHILIN INHIBITOR AND USE THEREOF” (PEKING UNIVERSITY SHENZHEN GRADUATE SCHOOL, priority 2021, published 2024).

What was measured:
[1] = molecular target: T1, CypA (Homo sapiens, UniProt P62937); experiment: PPIase activity, chymotrypsin hydrolysis of N-Succinyl-Ala-Ala-Pro-Phe p-nitroanilide; format: biochemical; details: 50 nM CypA, 250 μg/mL chymotrypsin, 80 μM substrate peptide; read-out: IC50, CypA enzymatic activity
Protocol: The effect of inhibitors on CypA enzyme activity was determined using the chymotrypsin hydrolysis of N-Succinyl-Ala-Ala-Pro-Phe p-nitroanilide substrate peptide. […] When catalyzed by proline cis-trans isomerase, its configuration changes from cis to trans, which can be specifically cleaved by chymotrypsin and release p-nitroanilide with maximum absorption around 390 nm. Thus, the stronger the CypA enzyme activity is, the faster the substrate is degraded, and the faster the absorbance at 390 nm increases. Kinetic monitoring was initiated by the addition of 250 μg/mL chymotrypsin and finally, 80 μM of an ultra-dry substrate peptide solution (470 mM LiCL in trifluoroethanol) using a microplate reader with an autosampler after binding to different concentrations of inhibitors using 50 nM CypA.

[2] = tested on: IL-8; experiment: CypA-stimulated IL-8 transcription in THP1 cells, RT-PCR; format: cell-based; details: CypA 12 hours, medium with 0.1% BSA
[3] = Serum ALT, AST in high-fat diet-induced atherosclerotic mice; format: in vivo; details: ApoE-/- mice, 5 mg/kg once a week, 9 weeks
Text: Atherosclerosis model in mice was induced and administered as described in Example 25. At the end of the experimental period, the mice were euthanized and serum was taken for determination of ALT and AST contents.

[4] = molecular target: T2, intracellular CypA (Homo sapiens, UniProt P62937); experiment: Fluorescence competition flow cytometry with CsA-FITC probe in Jurkat cells; format: cell-based; details: CsA-FITC labelled Jurkat cells
T2 construct: endogenous in cells; host or cells: Jurkat
T2 sequence (P62937 whole entry): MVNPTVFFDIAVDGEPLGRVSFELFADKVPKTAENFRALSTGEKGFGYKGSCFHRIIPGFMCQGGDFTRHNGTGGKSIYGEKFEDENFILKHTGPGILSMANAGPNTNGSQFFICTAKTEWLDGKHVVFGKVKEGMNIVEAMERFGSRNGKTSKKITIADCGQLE

[5] = Serum blood lipid markers in high-fat diet-induced atherosclerotic mice; format: in vivo; details: ApoE-/- mice, 5 mg/kg once a week, 9 weeks
Protocol: A mouse model of atherosclerosis induced by a high-fat diet was established as described in Example 23 and administered in groups, 4MCsA at 5 mg/kg or placebo via tail vein once a week for 9 consecutive weeks, after which the mice were euthanized and serum was collected for routine lipid profile testing.

[6] = Fasting blood glucose and glycated hemoglobin in T2DM mouse models; format: in vivo, mice
Text: To effectively evaluate the effect of the drug on T2DM, this example selected DB mice and high fat diet-induced obese mouse models (HFD mice) as two different predisposing mouse models of type 2 diabetes as subjects.

[7] = tested on: CD8T cells; experiment: CD8 T cell infiltration in the tumor microenvironment, frozen section immunofluorescence; format: in vivo, mice; details: tumor frozen sections
Protocol: The thickness of the frozen section is required to be 4-8 μm, place it at room temperature for 30 min after taking it out from −80° C., fix it in acetone at 4° C. for 10 min, wash with PBS, 5 min×3; block with 5-10% normal goat serum (diluted in PBS) and incubate at room temperature for 10 minutes. […] PBS flush, 5 min×3 times; add the appropriately diluted biotin-labeled secondary antibody (diluted in 1% BSA-PBS) dropwise, and incubate at 37° C. for 90-120 minutes; or second-generation horseradish enzyme-labeled streptavidin working solution, incubate at 37° C. or room temperature for 10-30 minutes; the PBS was washed 5 minutes×3 times, mounted and photographed using an inverted fluorescence microscope. Finally, ImageJ was used for statistical analysis.

[8] = Hepatorenal toxicity evaluation, serum ALT, AST, creatinine, urea; details: 50 days
[9] = tested on: NFAT; experiment: NFAT dephosphorylation in PMA/ionomycin activated Jurkat cells, Western blot; format: cell-based; details: 1.5 h preincubation, 25 nM PMA and 1 μg/mL ionomycin 2 h
Text: Based on this, the present inventors investigated the effect of molecules on NFAT signal transduction during JurkatT cell activation by ionomycin and PMA. […] After the collection of cells, the dephosphorylation level of NFAT protein was detected by extraction, electrophoresis, transfer printing, and NFAT antibody. Dephosphorylation of NFAT results in two bands, phosphorylated and nonphosphorylated.

[10] = tested on: TNF-a, IL-1β; experiment: Serum inflammatory factors in DB mice, ELISA; format: in vivo; details: 42 days of administration
[11] = Insulin tolerance test (ITT); format: in vivo, mice
Protocol: Insulin signaling response was further measured by performing an insulin sensitivity test (insulin tolerance test, ITT) on each of the two mice in Example 15. After the mice were fasted for 6 hours, insulin (2 U/kg for DB mice and 1 U/kg for HFD mice) was injected intraperitoneally, and then the blood glucose contents were measured at different time points.

[12] = molecular target: T1, CypA; experiment: Competitive fluorescence polarization binding assay
Text: Fluorescence polarization (FP) is a widely used technique for measuring ligand-receptor binding in solution systems. Free fluorescent probes in the free state rotate rapidly in the system and the emitted fluorescence is mostly depolarized light. Once the probe binds to a larger molecule, the rotation of the molecule is restricted, and the emission of polarized light increases.

[13] = Aortic lesion extent in high-fat diet induced atherosclerotic mice, oil red O; format: in vivo, ApoE gene-deficient C57BL/6J mice; details: ApoE-/- mice, Western diet, 5 mg/kg/week tail vein, 9 weeks
Protocol: Five-week-old ApoE gene-deficient C57BL/6J mice were randomly divided into two groups and fed with the Western diet for high-fat induction. From the 7th week, the experimental group received 4MCsA at a dose of 5 mg/kg/week via tail vein injection for 9 weeks. At the end of the experiment, the experimental animals were euthanized, dissected, and perfused with 10 mL of tissue fixative (4% paraformaldehyde) and 10 mL of […] from the right atrial appendage. The aorta was isolated intact under stereoscope and extravascular adherent adipose tissue was dissected with fat forceps. The isolated aorta was stained with oil red O, photographed, and recorded, and the lesion area of the aortic arch in the experimental group and the control group was counted with ImageJ, and the difference was statistically significant.

[14] = molecular target: albumin (BSA) (Bos taurus, UniProt P02769); experiment: Albumin cysteine reaction site, bottom-up peptide LC-ESI-MS; details: pancreatin digest, peptide GLVLIAFSQYLQQCPFDEHVK
Sequence of albumin (BSA) (P02769 25-607): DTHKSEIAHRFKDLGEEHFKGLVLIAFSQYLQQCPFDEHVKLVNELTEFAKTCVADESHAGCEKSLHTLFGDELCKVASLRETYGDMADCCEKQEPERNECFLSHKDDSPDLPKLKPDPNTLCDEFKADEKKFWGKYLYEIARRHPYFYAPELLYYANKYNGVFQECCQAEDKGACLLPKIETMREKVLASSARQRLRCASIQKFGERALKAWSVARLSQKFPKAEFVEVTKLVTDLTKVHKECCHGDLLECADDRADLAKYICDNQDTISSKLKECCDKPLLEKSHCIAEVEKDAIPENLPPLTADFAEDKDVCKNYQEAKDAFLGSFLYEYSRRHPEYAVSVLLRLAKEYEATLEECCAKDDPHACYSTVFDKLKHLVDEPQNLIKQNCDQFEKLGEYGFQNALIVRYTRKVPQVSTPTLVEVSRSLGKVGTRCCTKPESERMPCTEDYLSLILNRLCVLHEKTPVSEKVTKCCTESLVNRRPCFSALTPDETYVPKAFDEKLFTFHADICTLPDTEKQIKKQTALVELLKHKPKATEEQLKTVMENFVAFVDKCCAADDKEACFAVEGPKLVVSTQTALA
Protocol: The complex of Example 4 was denatured with urea, and the diluted protein sample was added in the proportion of pancreatin:protein=1:50. After enzymatic hydrolysis at 37° C. for 18 h, the peptide sample was desalted using Pierce® Spin Columns (Thermo Fisher) desalting column. The eluate was eluted with 70% acetonitrile, lyophilized, dissolved with 0.1% formic acid in water, and the peptide was analyzed by LC-ESI-MS, and the modified sites were analyzed using BioPharma Finder software (Thermo Fisher).

[15] = tested on: HEK293 human kidney cells; experiment: MTT cytotoxicity; format: cell-based; details: HEK293, medium with 4% BSA, 30 hours, up to 50 μM
[16] = tested on: CRP; experiment: Serum CRP in high-fat diet-induced atherosclerotic mice; format: in vivo; details: ApoE-/- mice, 5 mg/kg weekly, 9 weeks
Protocol: After successful modeling of atherosclerotic mice, the effect of the compounds on the development of cardiovascular disease was evaluated by assessing the risk of developing cardiovascular disease in the body by measuring CRP levels in the serum of experimental mice given weekly tail vein injections of 5 mg/kg 4MCsA for 9 weeks as described in Example 23.

[17] = tested on: IL-2; experiment: IL-2 secretion of activated Jurkat cells, ELISA; format: cell-based; details: 4MCsA up to 5 μM, 24 h PMA and ionomycin stimulation
Protocol: Meanwhile, the present invention further examined the secretion of IL-2 protein downstream of T-cell activation in which NFAT was involved, and the IL-2 protein content in the culture medium was measured using the ELISA method after 24 h of PMA and ionomycin stimulation.

[18] = tested on: CT26-LUC mouse colon cancer cells; experiment: CT26-LUC mouse colon cancer tumor model; format: in vivo; details: Balb/C mice, subcutaneous CT26-LUC, 5 mg/kg, three weeks
Protocol: This example establishes a mouse tumor model to reflect the effect of the drug by measuring the size of the tumor.
CT26-LUC mouse colon cancer cells were inoculated subcutaneously on the dorsal side of Balb/C mice in an amount of […]. Six days later, the tumor size was about 100 mm^3. The simultaneous administration was measured with vernier caliper and the administration dose of 4MCsA was 5 mg/kg. The tumors were measured once every two days and the tumor size was counted. The experiment was terminated after three weeks.

[19] = Glucose tolerance test (GTT); format: in vivo, mice
[20] = tested on: THP-1 cells; experiment: Transwell CypA-induced THP-1 cell migration; format: cell-based; details: 200 ng/ml CypA, 1 hour
[21] = tested on: CypA; experiment: Serum CypA content in T2DM model mice, ELISA; format: in vivo; details: DB diabetic mice, tail vein weekly for 3 weeks
Text: This example examined the effect of drugs on serum CypA contents in mice using db/db genetically engineered mice deficient in leptin receptors (DB mice) as a T2DM model (C57 mice as a healthy control group).

[22] = tested on: Jurkat cells; experiment: High resolution mass spectrometry determination of molecular penetration in Jurkat cells; format: in vitro ADME; details: 5 μM compound, 37° C., 2 hours
Text: For direct detection of molecular penetration, intracellular compound concentrations were quantified by an external standard method using a QE-Focus mass spectrometer.
The m/z signal of the corresponding molecule is selected to perform peak extraction on the chromatogram to obtain an ion chromatogram (EIC) corresponding to the extraction of the molecule, and then the concentration of the extract is quantified using the peak area under the curve of the EIC of the cell extract.

[23] = tested on: insulin; experiment: Basal and glucose-stimulated insulin secretion, ELISA; format: in vivo, mice
[24] = DB and HFD mice, once weekly tail vein, compared to CsA
[25] = HFD mice, within 36 hours on day 23 of dosing
[26] = HFD mice, within 60 hours on day 17 of dosing

T1 sequence (P62937 whole entry, species assumed): as the sequence (P62937 whole entry) above

Compound: CC=CCC(C)C(O)C1C(=O)NC(CC)C(=O)N(C)CC(=O)N(C)C(CCCCNC(=O)CCCCCN2C(=O)C=CC2=O)C(=O)NC(C(C)C)C(=O)N(C)C(CC(C)C)C(=O)NC(C)C(=O)NC(C)C(=O)N(C)C(CC(C)C)C(=O)N(C)C(CC(C)C)C(=O)N(C)C(C(C)C)C(=O)N1C (stereo not shown) [Compound 4MCsA]
- IC50 [1]: 22.6 ± 4.3 nM
- eCypA-increased transcription level of mRNA of IL-8 [2]: significantly inhibited
- activity of ALT in the serum [3]: no significant change
- activity of AST in the serum [3]: no significant change
- effect on the intracellular fluorescence signal [4]: very little effect
- HDL-C content [5]: increased
- TC content [5]: no significant effect
- TC/HDL-C [5]: significantly reduce
- TG content [5]: no significant effect
- serum LDL-C content [5]: significantly decreased
- fasting blood glucose [6, 24]: significantly decreased
- glycated hemoglobin contents [6, 24]: decreased
- fasting blood glucose vs C57 ctrl ([6]; normal C57 mice, 5 mg/kg/week, after 5 weeks): comparable to the normal group
- infiltration of CD8T cells in the tumor microenvironment [7]: promote the infiltration
- ALT level ([8]; C57 healthy mice): remained close to those of healthy controls
- AST level ([8]; C57 healthy mice): remained close to those of healthy controls
- urea level ([8]; C57 healthy mice): remained close to those of healthy controls
- creatinine level between groups ([8]; DB mice): no difference
- hepatorenal toxicity (ALT, AST) ([8]; DB mice): not further enhanced
- urea level between groups ([8]; DB mice): no difference
- NFAT dephosphorylation induced by PMA and ionomycin [9]: no significant effect
- level of IL-1β [10]: significantly reduce
- level of TNF-a [10]: significantly reduce
- dose dependence of the effect on ITT ([11]; DB mice, 1 and 5 mg/kg/week): dose-dependent
- insulin sensitivity (ITT) ([11]; DB mice, insulin 2 U/kg i.p.): significantly improved
- ITT AUC compared with CsA ([11]; HFD mice): lower AUC
- insulin resistance caused by obesity (ITT) ([11]; HFD mice, insulin 1 U/kg i.p.): attenuated insulin resistance
- Ki ([12]; 50 nM CypA, 20 nM CsA-FITC probe): 198 ± 17 nM
- lesion area of the aortic arch vs control group [13]: significantly reduced
- modification site on BSA [14]: Cys34
- cytotoxicity, cell survival by MTT [15]: little cytotoxicity
- CRP content in the serum [16]: very significantly reduce
- secretion of IL-2 [17]: hardly affected
- tumor size [18]: certain antitumor effect
- GTT AUC ([19]; C57 healthy mice): less than that in CsA group
- GTT area under the curve (AUC) ([19]; DB mice, 5 mg/kg group vs Ctrl): significantly reduced
- glucose tolerance status (GTT) ([19]; DB mice, 5 mg/kg, after 5 weeks, glucose 1 g/kg i.p.): significantly improved
- GTT [19, 25]: significant improvement
- GTT AUC [19, 25]: significant decrease
- GTT [19, 26]: remained significantly improved
- GTT AUC [19, 26]: significantly reducing
- migration activity promoted by CypA [20]: significantly abolished
- blood CypA contents [21]: decreased
- Intracellular conc. (μM) [22]: not detected
- basal level of insulin ([23]; DB mice): little effect
- glucose-stimulated insulin secretion vs DB ctrl ([23]; DB mice): no significant difference
- glucose-stimulated insulin secretion vs C57 ctrl ([23]; healthy C57 mice): increased

Compound: CCC1NC(=O)C(C(O)C(C)CC=Cc2ccc(C(=O)NCCOCCNC(=S)Nc3ccc(-c4c5ccc(=O)cc-5oc5cc(O)ccc45)c(C(=O)O)c3)cc2)N(C)C(=O)C(C(C)C)N(C)C(=O)C(CC(C)C)N(C)C(=O)C(CC(C)C)N(C)C(=O)C(C)NC(=O)C(C)NC(=O)C(CC(C)C)N(C)C(=O)C(C(C)C)NC(=O)C(CC(C)C)N(C)C(=O)CN(C)C1=O (stereo not shown) [CsA-FITC, reference compound]
- proportion of fluorescent cells [4]: 95.30%
- Kd ([12]; fluorescence polarization, probe itself, read-out: binding constant Kd with CypA): 14.8 ± 0.7 nM
